Source: patent US8283361B2 (AstraZeneca AB, priority 2008, dated 2012)

Each compound was assayed against S. aureus GyrB ATPase (Staphylococcus aureus, UniProt P0A0K8) (assay: biochemical). Conditions: compound at 1 μM; one value per test if tested more than once; 1 µM.
Description: S. aureus GyrB ATPase Inhibition Activity: Compounds may be tested for inhibition of S. aureus GyrB ATPase activity using an ammonium molybdate/malachite green-based phosphate detection assay (Lanzetta, P. A., L. J. Alvarez, P. S. Reinach, and O. A. Candia, 1979, 100: 95-97). Assays can be performed in multiwell plates in 30 μl reactions containing: 50 mM Hepes buffer pH 7.5, 75 mM ammonium acetate, 8.0 mM magnesium chloride, 0.5 mM ethylenediaminetetraacetic acid, 5% glycerol, 1.0 mM 1,4-Dithio-DL-threitol, 200 nM bovine serum albumin, 1.0 μg/m1 sheared salmon sperm DNA, 250 pM E. coli GyrA, 250 pM S. aureus GyrB, 250 μM ATP, and compound in dimethylsulfoxide. Reactions can be quenched with 30 μl of ammonium molybdate/malachite green detection reagent containing 1.2 mM malachite green hydrochloride, 8.5 mM ammonium molybdate tetrahydrate, and 1 M hydrochloric acid. […] An IC50 measurement of compound potency for each compound can be determined from reactions performed in the presence of 10 different compound concentrations.

Sequence of S. aureus GyrB ATPase (P0A0K8 whole entry): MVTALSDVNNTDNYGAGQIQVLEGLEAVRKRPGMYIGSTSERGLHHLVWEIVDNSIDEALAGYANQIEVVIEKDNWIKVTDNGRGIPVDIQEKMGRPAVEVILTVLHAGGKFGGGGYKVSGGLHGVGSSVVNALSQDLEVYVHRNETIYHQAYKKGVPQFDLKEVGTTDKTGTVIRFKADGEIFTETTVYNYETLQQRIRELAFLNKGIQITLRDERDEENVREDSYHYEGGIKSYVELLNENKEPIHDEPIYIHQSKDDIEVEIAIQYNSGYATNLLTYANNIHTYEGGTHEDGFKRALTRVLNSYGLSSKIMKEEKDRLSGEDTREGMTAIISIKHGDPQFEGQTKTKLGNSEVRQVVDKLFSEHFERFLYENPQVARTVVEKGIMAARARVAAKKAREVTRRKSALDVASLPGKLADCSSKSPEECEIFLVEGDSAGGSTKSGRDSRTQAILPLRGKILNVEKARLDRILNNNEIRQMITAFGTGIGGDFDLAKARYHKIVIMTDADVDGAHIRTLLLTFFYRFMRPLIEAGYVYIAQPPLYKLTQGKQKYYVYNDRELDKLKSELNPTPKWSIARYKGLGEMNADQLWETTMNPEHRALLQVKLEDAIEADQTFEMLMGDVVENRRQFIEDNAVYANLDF
Sequence of S. aureus GyrB ATPase (P0AES4 whole entry, further chain): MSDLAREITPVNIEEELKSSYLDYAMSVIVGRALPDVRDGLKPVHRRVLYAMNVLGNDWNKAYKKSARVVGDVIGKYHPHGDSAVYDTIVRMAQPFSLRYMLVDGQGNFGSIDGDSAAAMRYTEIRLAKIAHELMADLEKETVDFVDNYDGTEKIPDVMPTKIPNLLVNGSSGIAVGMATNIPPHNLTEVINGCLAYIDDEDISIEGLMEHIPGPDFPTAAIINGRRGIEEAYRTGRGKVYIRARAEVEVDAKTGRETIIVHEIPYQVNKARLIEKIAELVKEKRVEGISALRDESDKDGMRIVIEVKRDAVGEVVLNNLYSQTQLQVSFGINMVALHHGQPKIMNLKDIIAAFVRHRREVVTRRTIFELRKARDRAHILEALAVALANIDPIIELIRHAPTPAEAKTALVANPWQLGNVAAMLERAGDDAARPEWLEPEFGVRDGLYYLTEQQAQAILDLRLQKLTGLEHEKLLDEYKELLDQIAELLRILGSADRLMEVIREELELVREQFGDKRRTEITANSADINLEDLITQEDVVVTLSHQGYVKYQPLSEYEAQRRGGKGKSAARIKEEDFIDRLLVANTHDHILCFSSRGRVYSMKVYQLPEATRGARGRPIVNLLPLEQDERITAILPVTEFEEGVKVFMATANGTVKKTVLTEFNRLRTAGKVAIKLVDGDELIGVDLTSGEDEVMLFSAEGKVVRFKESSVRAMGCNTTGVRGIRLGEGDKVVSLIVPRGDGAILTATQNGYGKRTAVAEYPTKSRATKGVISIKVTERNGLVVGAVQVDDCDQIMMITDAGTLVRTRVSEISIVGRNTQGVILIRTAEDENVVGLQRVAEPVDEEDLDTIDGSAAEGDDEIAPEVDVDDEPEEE

Row | Structure (SMILES) | % Inhibition of S. aureus GyrB ATPase
1 | CCNC(=O)Nc1cc(-c2nc(C(F)(F)F)cs2)c(-c2ccc3c(=O)c(C(=O)NC)cn(CC)c3c2)cn1 [Example 33, 1-ethyl-7-(6-(3-ethylureido)-4-(4-(trifluoromethyl)thiazol-2-yl)pyridin-3-yl)-N-methyl-4-oxo-1,4-dihydroquinoline-3-carboxamide] | 109%

Same assay, conditions: compound at 1 μM; one value per test if tested more than once; read-out: % Inhibition of S. aureus GyrB ATPase

Row | Structure (SMILES) | inhibition at 1 µM
2 | CCNC(=O)Nc1cc(-c2nc(C(F)(F)F)cs2)c(-c2ccc3c(=O)c(C(=O)NC)cn(CC)c3c2)cn1 [Example 33, 1-ethyl-7-(6-(3-ethylureido)-4-(4-(trifluoromethyl)thiazol-2-yl)pyridin-3-yl)-N-methyl-4-oxo-1,4-dihydroquinoline-3-carboxamide] | 97%
3 | CCNC(=O)Nc1cc(-c2nc(C(F)(F)F)cs2)c(-c2ccc3c(c2)c(=O)c(C(=O)NC)cn3CC)cn1 [Example 34, 1-ethyl-6-(6-(3-ethylureido)-4-(4-(trifluoromethyl)thiazol-2-yl)pyridin-3-yl)-N-methyl-4-oxo-1,4-dihydroquinoline-3-carboxamide] | 100%
4 | CCNC(=O)Nc1cc(-c2nc(CC)cs2)c(-c2ccc3c(=O)c(C(=O)NC)cn(CC)c3c2)cn1 [Example 36, 1-ethyl-7-(4-(4-ethylthiazol-2-yl)-6-(3-ethylureido)pyridin-3-yl)-N-methyl-4-oxo-1,4-dihydroquinoline-3-carboxamide] | 64%
5 | CCNC(=O)Nc1cc(-c2nc(CC)cs2)c(-c2ccc3c(c2)c(=O)c(C(=O)NC)cn3CC)cn1 [Example 37, 1-ethyl-6-(4-(4-ethylthiazol-2-yl)-6-(3-ethylureido)pyridin-3-yl)-N-methyl-4-oxo-1,4-dihydroquinoline-3-carboxamide] | 96%
6 | CCNC(=O)Nc1cc(-c2nc(CC)cs2)c(-c2cc3c4c(c2)c(=O)c(C(=O)NC)cn4CCO3)cn1 [Example 38, 9-(4-(4-ethylthiazol-2-yl)-6-(3-ethylureido)pyridin-3-yl)-N-methyl-7-oxo-3,7-dihydro-2H-[1,4]oxazino[2,3,4-ij]quinoline-6-carboxamide] | 99%
7 | CCNC(=O)Nc1cc(-c2nc(-c3ccccc3)cs2)c(-c2ccc3c(=O)c(C(=O)NC)cn(CC)c3c2)cn1 [Example 39, 1-ethyl-7-(6-(3-ethylureido)-4-(4-phenylthiazol-2-yl)pyridin-3-yl)-N-methyl-4-oxo-1,4-dihydroquinoline-3-carboxamide] | 101%
8 | CCNC(=O)Nc1cc(-c2nc(-c3ccccc3)cs2)c(-c2cc3c4c(c2)c(=O)c(C(=O)NC)cn4CCO3)cn1 [Example 41, 9-(6-(3-ethylureido)-4-(4-phenylthiazol-2-yl)pyridin-3-yl)-N-methyl-7-oxo-3,7-dihydro-2H-[1,4]oxazino[2,3,4-ij]quinoline-6-carboxamide] | 105%
9 | CCNC(=O)Nc1cc(-c2nc(C(F)(F)F)cs2)c(-c2ccc3c(=O)c(C(=O)OCC)cn(CC)c3c2)cn1 [Example 42, Ethyl 1-ethyl-7-(6-(3-ethylureido)-4-(4-trifluoromethylthiazol-2-yl)pyridin-3-yl)-4-oxo-1,4-dihydroquinoline-3-carboxylate] | 113%
10 | CCNC(=O)Nc1cc(-c2nc(-c3ccccc3)cs2)c(-c2ccc3c(=O)c(C(=O)OCC)cn(CC)c3c2)cn1 [Example 44, ethyl 1-ethyl-7-(6-(3-ethylureido)-4-(4-phenylthiazol-2-yl)pyridin-3-yl)-4-oxo-1,4-dihydroquinoline-3-carboxylate] | 98%
11 | CCNC(=O)Nc1cc(-c2nc(C(F)(F)F)cs2)c(-c2cc3c4c(c2)c(=O)c(C(=O)OCC)cn4CCO3)cn1 [Example 48, ethyl 9-(6-(3-ethylureido)-4-(4-trifluoromethylthiazol-2-yl)pyridin-3-yl)-7-oxo-3,7-dihydro-2H-[1,4]oxazino[2,3,4-ij]quinoline-6-carboxylate] | 106%
12 | CCNC(=O)Nc1cc(-c2nc(C(F)(F)F)cs2)c(-c2ccc3c(c2)c(=O)c(C(=O)O)cn3[C@@H](C)CO)cn1 [Example 71, (S)-6-(6-(3-ethylureido)-4-(4-(trifluoromethyl)thiazol-2-yl)pyridin-3-yl)-1-(1-hydroxypropan-2-yl)-4-oxo-1,4-dihydroquinoline-3-carboxylic acid] | 107%
13 | CCNC(=O)Nc1cc(-c2nc(C(F)(F)F)cs2)c(-c2ccc3c(c2)c(=O)c(C(=O)O)cn3[C@H](C)CO)cn1 [Example 72, (R)-6-(6-(3-ethylureido)-4-(4-(trifluoromethyl)thiazol-2-yl)pyridin-3-yl)-1-(1-hydroxypropan-2-yl)-4-oxo-1,4-dihydroquinoline-3-carboxylic acid] | 103%
14 | CCNC(=O)Nc1cc(-c2nc(C(F)(F)F)cs2)c(-c2ccc3c(c2)c(=O)c(C(=O)O)cn3[C@H](CO)[C@@H](C)O)cn1 [Example 73, 1-((2R,3R)-1,3-dihydroxybutan-2-yl)-6-(6-(3-ethylureido)-4-(4-(trifluoromethyl)thiazol-2-yl)pyridin-3-yl)-4-oxo-1,4-dihydroquinoline-3-carboxylic acid] | 105%
15 | CCNC(=O)Nc1cc(-c2nc(C(F)(F)F)cs2)c(-c2ccc3c(c2)c(=O)c(C(=O)O)cn3[C@H](CO)Cc2ccccc2)cn1 [Example 74, (S)-6-(6-(3-ethylureido)-4-(4-(trifluoromethyl)thiazol-2-yl)pyridin-3-yl)-1-(1-hydroxy-3-phenylpropan-2-yl)-4-oxo-1,4-dihydroquinoline-3-carboxylic acid] | 103%
16 | CCNC(=O)Nc1cc(-c2nc(C(F)(F)F)cs2)c(-c2ccc3c(c2)c(=O)c(C(=O)O)cn3C(CO)CO)cn1 [Example 75, 1-(1,3-dihydroxypropan-2-yl)-6-(6-(3-ethylureido)-4-(4-(trifluoromethyl)thiazol-2-yl)pyridin-3-yl)-4-oxo-1,4-dihydroquinoline-3-carboxylic acid] | 102%
17 | CCNC(=O)Nc1cc(-c2nc(C(F)(F)F)cs2)c(-c2ccc3c(c2)c(=O)c(C(=O)O)cn3[C@@H](CO)C(C)(C)C)cn1 [Example 76, (R)-6-(6-(3-ethylureido)-4-(4-(trifluoromethyl)thiazol-2-yl)pyridin-3-yl)-1-(1-hydroxy-3,3-dimethylbutan-2-yl)-4-oxo-1,4-dihydroquinoline-3-carboxylic acid] | 110%
18 | CCNC(=O)Nc1cc(-c2nc(C(F)(F)F)cs2)c(-c2ccc3c(c2)c(=O)c(C(=O)O)cn3[C@@H](CO)Cc2ccc(O)cc2)cn1 [Example 77, (R)-6-(6-(3-ethylureido)-4-(4-(trifluoromethyl)thiazol-2-yl)pyridin-3-yl)-1-(1-hydroxy-3-(4-hydroxyphenyl)propan-2-yl)-4-oxo-1,4-dihydroquinoline-3-carboxylic acid] | 110%
19 | CCNC(=O)Nc1cc(-c2nc(C(F)(F)F)cs2)c(-c2ccc3c(c2)c(=O)c(C(=O)O)cn3[C@H](CO)C2CCCCC2)cn1 [Example 78, (S)-1-(1-cyclohexyl-2-hydroxyethyl)-6-(6-(3-ethylureido)-4-(4-(trifluoromethyl)thiazol-2-yl)pyridin-3-yl)-4-oxo-1,4-dihydroquinoline-3-carboxylic acid] | 102%
20 | CCNC(=O)Nc1cc(-c2nc(C(F)(F)F)cs2)c(-c2ccc3c(c2)c(=O)c(C(=O)O)cn3[C@H](CC)CO)cn1 [Example 79, (R)-6-(6-(3-ethylureido)-4-(4-(trifluoromethyl)thiazol-2-yl)pyridin-3-yl)-1-(1-hydroxybutan-2-yl)-4-oxo-1,4-dihydroquinoline-3-carboxylic acid] | 97%
21 | CCNC(=O)Nc1cc(-c2nc(C(F)(F)F)cs2)c(-c2ccc3c(c2)c(=O)c(C(=O)O)cn3C(CO)C2CCOCC2)cn1 (stereo not shown) [Example 80, 6-(6-(3-ethylureido)-4-(4-(trifluoromethyl)thiazol-2-yl)pyridin-3-yl)-1-(-hydroxy-1-(tetrahydro-H-pyran-4-yl)ethyl)-4-oxo-1,4-dihydroquinoline-3-carboxylic acid] | 96%
22 | CCNC(=O)Nc1cc(-c2nc(C(F)(F)F)cs2)c(-c2ccc3c(c2)c(=O)c(C(=O)O)cn3[C@H](CO)C(C)(C)C)cn1 [Example 81, 6-{6-[(ethylcarbamoyl)amino]-4-[4-(trifluoromethyl)-1,3-thiazol-2-yl]pyridin-3-yl}-1-[(1S)-1-(hydroxymethyl)-2,2-dimethylpropyl]-4-oxo-1,4-dihydroquinoline-3-carboxylic acid] | 96%
23 | CCNC(=O)Nc1cc(-c2nc(C(F)(F)F)cs2)c(-c2ccc3c(c2)c(=O)c(C(=O)O)cn3[C@H](CO)C(C)C)cn1 [Example 82, 6-{6-[(ethylcarbamoyl)amino]-4-[4-(trifluoromethyl)-1,3-thiazol-2-yl]pyridin-3-yl}-1-[(1S)-1-(hydroxymethyl)-2-methylpropyl]-4-oxo-1,4-dihydroquinoline-3-carboxylic acid] | 111%
24 | CCNC(=O)Nc1cc(-c2nc(C(F)(F)F)cs2)c(-c2ccc3c(c2)c(=O)c(C(=O)O)cn3[C@H](CO)CC(C)C)cn1 [Example 83, (S)-6-(6-(3-ethylureido)-4-(4-(trifluoromethyl)thiazol-2-yl)pyridin-3-yl)-1-(1-hydroxy-4-methylpentan-2-yl)-4-oxo-1,4-dihydroquinoline-3-carboxylic acid] | 96%
25 | CCCNC(=O)Nc1cc(-c2nc(C(F)(F)F)cs2)c(-c2ccc3c(c2)c(=O)c(C(=O)O)cn3[C@H](CO)C(C)(C)C)cn1 [Example 84, (S)-1-(1-hydroxy-3,3-dimethylbutan-2-yl)-4-oxo-6-(6-(3-propylureido)-4-(4-(trifluoromethyl)thiazol-2-yl)pyridin-3-yl)-1,4-dihydroquinoline-3-carboxylic acid] | 95%
